# Results published in PMC5218480 (PLoS ONE, 2017).
# Tested on: MV-4-11 cells
# Assay: Gene expression microarray analysis (Affymetrix PrimeView) and GSEA
# Type: cell-based, human
# Parameters: RFU PODN (11730768_x_at) / Fold change /veh PODN (11730768_x_at) / RFU LINC00158 (11744669_a_at) / Fold change /veh LINC00158 (11744669_a_at) / RFU DUSP10 (11751237_a_at) / Fold change /veh DUSP10 (11751237_a_at) / RFU ID3 (11757404_x_at) / Fold change /veh ID3 (11757404_x_at) / RFU PLEKHG5 (11737974_s_at) / Fold change /veh PLEKHG5 (11737974_s_at) / RFU LRRC4B (11730491_at) / Fold change /veh LRRC4B (11730491_at) / RFU GIMAP4 (11747438_a_at) / Fold change /veh GIMAP4 (11747438_a_at) / RFU KRT8 (11758183_x_at) / Fold change /veh KRT8 (11758183_x_at) / RFU CNN1 (11734310_a_at) / Fold change /veh CNN1 (11734310_a_at) / RFU VPS37D (11726825_at) / Fold change /veh VPS37D (11726825_at) / RFU C10orf10 (11716522_x_at) / Fold change /veh C10orf10 (11716522_x_at) / RFU KIR2DL2 /// KIR2DL4 /// KIR2DL5A /// KIR2DL5B /// KIR2DS1 /// KIR2DS2 /// KIR2DS3 /// KIR2DS4 /// KIR3DL3 /// KIR3DL3 /// KIR3DS1 (11738374_at) / Fold change /veh KIR2DL2 /// KIR2DL4 /// KIR2DL5A /// KIR2DL5B /// KIR2DS1 /// KIR2DS2 /// KIR2DS3 /// KIR2DS4 /// KIR3DL3 /// KIR3DL3 /// KIR3DS1 (11738374_at) / RFU C1QL1 (11718748_at) / Fold change /veh C1QL1 (11718748_at) / RFU TMPRSS4 (11747572_a_at) / Fold change /veh TMPRSS4 (11747572_a_at) / RFU HAMP (11756126_x_at) / Fold change /veh HAMP (11756126_x_at) / RFU RNFT2 (11725882_a_at) / Fold change /veh RNFT2 (11725882_a_at) / RFU NR4A2 (11747474_a_at) / Fold change /veh NR4A2 (11747474_a_at) / RFU ABCC12 (11746883_a_at) / Fold change /veh ABCC12 (11746883_a_at) / RFU TMEM136 (11760407_x_at) / Fold change /veh TMEM136 (11760407_x_at) / RFU CLDN22 /// WWC2 (11732394_at) / Fold change /veh CLDN22 /// WWC2 (11732394_at) / RFU HLA-DPB1 (11760878_x_at) / Fold change /veh HLA-DPB1 (11760878_x_at) / RFU SPINT1 (11716480_a_at) / Fold change /veh SPINT1 (11716480_a_at) / RFU GAP43 (11754022_s_at) / Fold change /veh GAP43 (11754022_s_at) / RFU A4GNT (11735810_at) / Fold change /veh A4GNT (11735810_at) / RFU PRB3 (11715151_x_at) / Fold change /veh PRB3 (11715151_x_at) / RFU TUBB4B (11761932_at) / Fold change /veh TUBB4B (11761932_at) / RFU CAPN14 (11732068_a_at) / Fold change /veh CAPN14 (11732068_a_at) / RFU TMCC2 (11721928_a_at) / Fold change /veh TMCC2 (11721928_a_at) / RFU IRGQ (11745062_a_at) / Fold change /veh IRGQ (11745062_a_at) / RFU FAM174B (11720279_a_at) / Fold change /veh FAM174B (11720279_a_at) / RFU TMPRSS4 (11748680_a_at) / Fold change /veh TMPRSS4 (11748680_a_at) / RFU FAM212B (11763350_a_at) / Fold change /veh FAM212B (11763350_a_at) / RFU PLEKHG5 (11743358_a_at) / Fold change /veh PLEKHG5 (11743358_a_at) / RFU ZSCAN30 (11745921_a_at) / Fold change /veh ZSCAN30 (11745921_a_at) / RFU CMKLR1 (11741424_a_at) / Fold change /veh CMKLR1 (11741424_a_at) / RFU LOC101060620 /// MAPK8IP1 (11723275_at) / Fold change /veh LOC101060620 /// MAPK8IP1 (11723275_at) / RFU SPTSSB (11747773_x_at) / Fold change /veh SPTSSB (11747773_x_at) / RFU PRSS12 (11739890_at) / Fold change /veh PRSS12 (11739890_at) / RFU BIN1 (11741810_x_at) / Fold change /veh BIN1 (11741810_x_at) / RFU WNT11 (11732464_a_at) / Fold change /veh WNT11 (11732464_a_at) / RFU C10orf10 (11716521_a_at) / Fold change /veh C10orf10 (11716521_a_at) / RFU C5orf56 (11738089_at) / Fold change /veh C5orf56 (11738089_at) / RFU CYB561 (11721691_x_at) / Fold change /veh CYB561 (11721691_x_at) / RFU ANKRD19P (11752326_a_at) / Fold change /veh ANKRD19P (11752326_a_at) / RFU OR2T12 /// OR2T33 /// OR2T8 (11738714_s_at) / Fold change /veh OR2T12 /// OR2T33 /// OR2T8 (11738714_s_at) / RFU VCAN (11748164_a_at) / Fold change /veh VCAN (11748164_a_at) / RFU JSRP1 (11732532_at) / Fold change /veh JSRP1 (11732532_at) / RFU KRTAP10-11 (11738290_x_at) / Fold change /veh KRTAP10-11 (11738290_x_at) / RFU MYO3A (11730013_a_at) / Fold change /veh MYO3A (11730013_a_at) / RFU EBF3 (11725865_a_at) / Fold change /veh EBF3 (11725865_a_at) / RFU CAMK2N1 (11719241_x_at) / Fold change /veh CAMK2N1 (11719241_x_at) / RFU C5orf56 (11738088_a_at) / Fold change /veh C5orf56 (11738088_a_at) / RFU OLFML3 (11715873_a_at) / Fold change /veh OLFML3 (11715873_a_at) / RFU LOC100653217 /// NTM (11731650_a_at) / Fold change /veh LOC100653217 /// NTM (11731650_a_at) / RFU MAPK11 (11762145_a_at) / Fold change /veh MAPK11 (11762145_a_at) / RFU FIZ1 (11724087_x_at) / Fold change /veh FIZ1 (11724087_x_at) / RFU OASL (11726364_x_at) / Fold change /veh OASL (11726364_x_at) / RFU SOX15 (11748057_x_at) / Fold change /veh SOX15 (11748057_x_at) / RFU CD79A (11719716_a_at) / Fold change /veh CD79A (11719716_a_at) / RFU HIST1H1D (11736915_at) / Fold change /veh HIST1H1D (11736915_at) / RFU CASKIN2 (11723855_a_at) / Fold change /veh CASKIN2 (11723855_a_at) / RFU LOC730098 (11760151_x_at) / Fold change /veh LOC730098 (11760151_x_at) / RFU OR4N2 (11742367_at) / Fold change /veh OR4N2 (11742367_at) / RFU PRRT2 (11749266_a_at) / Fold change /veh PRRT2 (11749266_a_at) / RFU SNX32 (11753110_a_at) / Fold change /veh SNX32 (11753110_a_at) / RFU CDHR5 (11726645_a_at) / Fold change /veh CDHR5 (11726645_a_at) / RFU RCAN1 (11760418_a_at) / Fold change /veh RCAN1 (11760418_a_at) / RFU FAM167A (11723789_a_at) / Fold change /veh FAM167A (11723789_a_at) / RFU FAM26E (11764081_at) / Fold change /veh FAM26E (11764081_at) / RFU ISYNA1 (11749810_s_at) / Fold change /veh ISYNA1 (11749810_s_at) / RFU ACY1 (11761880_at) / Fold change /veh ACY1 (11761880_at) / RFU 11764098_at / Fold change /veh 11764098_at / RFU SAMD14 (11745864_x_at) / Fold change /veh SAMD14 (11745864_x_at) / RFU NPB (11741838_a_at) / Fold change /veh NPB (11741838_a_at) / RFU TMPRSS6 (11731388_a_at) / Fold change /veh TMPRSS6 (11731388_a_at) / RFU KRTAP10-2 (11738614_at) / Fold change /veh KRTAP10-2 (11738614_at) / RFU ARHGAP8 /// PRR5-ARHGAP8 (11727945_x_at) / Fold change /veh ARHGAP8 /// PRR5-ARHGAP8 (11727945_x_at) / RFU KRTAP5-7 /// NADSYN1 (11734609_at) / Fold change /veh KRTAP5-7 /// NADSYN1 (11734609_at) / RFU RASL12 (11751679_a_at) / Fold change /veh RASL12 (11751679_a_at) / RFU CDKN2B (11736163_a_at) / Fold change /veh CDKN2B (11736163_a_at) / RFU PRF1 (11729649_at) / Fold change /veh PRF1 (11729649_at) / RFU, ZNF638 /// ZNF638-IT1 / Fold change vs veh, ZNF638 /// ZNF638-IT1 / RFU, PANK3 / Fold change vs veh, PANK3 / RFU, SH3YL1 / Fold change vs veh, SH3YL1 / RFU, ZEB2 / Fold change vs veh, ZEB2 / RFU, NRIP1 / Fold change vs veh, NRIP1 / RFU, PTTG1IP / Fold change vs veh, PTTG1IP / RFU, CAPN2 / Fold change vs veh, CAPN2 / RFU, MED14 / Fold change vs veh, MED14 / RFU, SNORA58 / Fold change vs veh, SNORA58 / RFU, C1orf63 / Fold change vs veh, C1orf63 / RFU, LRRFIP1 / Fold change vs veh, LRRFIP1 / RFU, NDUFAF7 / Fold change vs veh, NDUFAF7 / RFU, SLC12A2 / Fold change vs veh, SLC12A2 / RFU, IBTK / Fold change vs veh, IBTK / RFU, ESF1 / Fold change vs veh, ESF1 / Fold change vs veh, TMEM50B / RFU, TAOK1 / Fold change vs veh, TAOK1 / RFU, ACBD3 / Fold change vs veh, ACBD3 / RFU, TMA16 / Fold change vs veh, TMA16 / RFU, RWDD3 / Fold change vs veh, RWDD3 / RFU, BCAT1 / Fold change vs veh, BCAT1 / RFU, EDEM3 / Fold change vs veh, EDEM3 / RFU, TMEM33 / Fold change vs veh, TMEM33 / RFU, WDR75 / Fold change vs veh, WDR75 / RFU, AHCTF1 / Fold change vs veh, AHCTF1 / RFU, TFRC / Fold change vs veh, TFRC / RFU, ZDHHC17 / Fold change vs veh, ZDHHC17 / RFU, NOM1 / Fold change vs veh, NOM1 / RFU, ARL8B / Fold change vs veh, ARL8B / RFU, ZBTB11 / Fold change vs veh, ZBTB11 / RFU, TAMM41 / Fold change vs veh, TAMM41 / RFU, KIAA1704 /// LOC100996395 / Fold change vs veh, KIAA1704 /// LOC100996395 / RFU, ING1 / Fold change vs veh, ING1 / RFU, TRMT61B / Fold change vs veh, TRMT61B / RFU, FUBP3 / Fold change vs veh, FUBP3 / RFU, TP53 / Fold change vs veh, TP53 / RFU, TNKS2 / Fold change vs veh, TNKS2 / RFU, ZFP14 / Fold change vs veh, ZFP14 / RFU, ACTR2 / Fold change vs veh, ACTR2 / RFU, PPP3R1 / Fold change vs veh, PPP3R1 / RFU, PIK3R1 / Fold change vs veh, PIK3R1 / RFU, HNRNPA1 / Fold change vs veh, HNRNPA1 / RFU, RNF170 / Fold change vs veh, RNF170 / RFU, ZNF28 / Fold change vs veh, ZNF28 / RFU, RNGTT / Fold change vs veh, RNGTT / RFU, OGT / Fold change vs veh, OGT / RFU, BRD1 / Fold change vs veh, BRD1 / RFU, MARS / Fold change vs veh, MARS / RFU, ZNF655 / Fold change vs veh, ZNF655 / RFU, FAHD1 / Fold change vs veh, FAHD1 / RFU, BDP1 / Fold change vs veh, BDP1 / RFU, LRRCC1 / Fold change vs veh, LRRCC1 / RFU, ARID1A / Fold change vs veh, ARID1A / RFU, ZNF146 / Fold change vs veh, ZNF146 / RFU, ZNF330 / Fold change vs veh, ZNF330 / RFU, GPN3 / Fold change vs veh, GPN3 / RFU, C9orf123 / Fold change vs veh, C9orf123 / RFU, N4BP2L2 / Fold change vs veh, N4BP2L2 / RFU, ARFIP1 / Fold change vs veh, ARFIP1 / RFU, FAM179B / Fold change vs veh, FAM179B / RFU, BCL10 / Fold change vs veh, BCL10 / RFU, UHRF1BP1L / Fold change vs veh, UHRF1BP1L / RFU, BET1 / Fold change vs veh, BET1 / RFU, CNOT2 / Fold change vs veh, CNOT2 / RFU, ZNF268 / Fold change vs veh, ZNF268 / Fold change vs veh, ZNF507 / RFU, DGCR2 / Fold change vs veh, DGCR2 / RFU, WDSUB1 / Fold change vs veh, WDSUB1 / Fold change vs veh, HSP90B1 /// MIR3652 / RFU, ADSS / Fold change vs veh, ADSS / RFU, GK / Fold change vs veh, GK / RFU, ZNF148 / Fold change vs veh, ZNF148 / RFU, TAF9 / Fold change vs veh, TAF9 / RFU, SLC1A5 / Fold change vs veh, SLC1A5 / RFU, SLMO2 / Fold change vs veh, SLMO2 / RFU, ABCC4 / Fold change vs veh, ABCC4 / RFU, LOC101060439 /// RAP1B / Fold change vs veh, LOC101060439 /// RAP1B / RFU, RFX7 / Fold change vs veh, RFX7 / RFU, GTPBP10 / Fold change vs veh, GTPBP10 / RFU, CNEP1R1 / Fold change vs veh, CNEP1R1 / RFU, BIVM-ERCC5 /// ERCC5 / Fold change vs veh, BIVM-ERCC5 /// ERCC5 / RFU, ILF3 / Fold change vs veh, ILF3 / RFU 11762660_at / Fold change /veh 11762660_at / RFU VCAN (11757783_s_at) / Fold change /veh VCAN (11757783_s_at) / RFU DDX43 (11728927_at) / Fold change /veh DDX43 (11728927_at) / RFU KRT8 (11758188_x_at) / Fold change /veh KRT8 (11758188_x_at) / RFU NKD1 (11759106_at) / Fold change /veh NKD1 (11759106_at) / RFU SRD5A1 (11742802_a_at) / Fold change /veh SRD5A1 (11742802_a_at) / RFU TPSAB1 /// TPSB2 (11721975_s_at) / Fold change /veh TPSAB1 /// TPSB2 (11721975_s_at) / RFU GSTM3 (11746129_a_at) / Fold change /veh GSTM3 (11746129_a_at) / RFU IL23R (11737362_x_at) / Fold change /veh IL23R (11737362_x_at) / RFU TMEM51 (11727254_a_at) / Fold change /veh TMEM51 (11727254_a_at) / RFU PIWIL2 (11732686_x_at) / Fold change /veh PIWIL2 (11732686_x_at) / RFU ORM1 (11744905_x_at) / Fold change /veh ORM1 (11744905_x_at) / RFU CCDC152 (11743942_at) / Fold change /veh CCDC152 (11743942_at) / RFU ECM1 (11717891_a_at) / Fold change /veh ECM1 (11717891_a_at) / RFU IL23R (11748794_a_at) / Fold change /veh IL23R (11748794_a_at) / RFU TNFAIP8L3 (11732012_x_at) / Fold change /veh TNFAIP8L3 (11732012_x_at) / RFU MBOAT4 (11741988_at) / Fold change /veh MBOAT4 (11741988_at) / RFU 11764193_at / Fold change /veh 11764193_at / RFU TMEM53 (11763286_at) / Fold change /veh TMEM53 (11763286_at) / RFU MAGEB2 (11727129_at) / Fold change /veh MAGEB2 (11727129_at) / RFU TMEM200A (11744735_a_at) / Fold change /veh TMEM200A (11744735_a_at) / RFU CCDC152 (11751479_a_at) / Fold change /veh CCDC152 (11751479_a_at) / RFU FAM211A (11726209_a_at) / Fold change /veh FAM211A (11726209_a_at) / RFU RGS16 (11746705_a_at) / Fold change /veh RGS16 (11746705_a_at) / RFU VCAN (11755009_s_at) / Fold change /veh VCAN (11755009_s_at) / RFU RHOB (11743442_s_at) / Fold change /veh RHOB (11743442_s_at) / RFU RGS16 (11720943_a_at) / Fold change /veh RGS16 (11720943_a_at) / RFU RGS16 (11720944_at) / Fold change /veh RGS16 (11720944_at) / RFU, VPS4B / Fold change vs veh, VPS4B / RFU, CREB1 / Fold change vs veh, CREB1 / RFU, DNAJC13 / Fold change vs veh, DNAJC13 / RFU, GNAQ / Fold change vs veh, GNAQ / RFU, CDK5R1 / Fold change vs veh, CDK5R1 / RFU, ZRANB3 / Fold change vs veh, ZRANB3 / RFU, CUL4A / Fold change vs veh, CUL4A / RFU, CCNY / Fold change vs veh, CCNY / RFU, UFL1 / Fold change vs veh, UFL1 / RFU, COG3 / Fold change vs veh, COG3 / RFU, DIAPH2 / Fold change vs veh, DIAPH2 / RFU, SKA2 / Fold change vs veh, SKA2 / RFU, AFF3 / Fold change vs veh, AFF3 / RFU, LMF1 / Fold change vs veh, LMF1 / RFU, IPO11 / Fold change vs veh, IPO11 / RFU, DFFB / Fold change vs veh, DFFB / RFU, FOXP1 / Fold change vs veh, FOXP1 / RFU, CARD8 / Fold change vs veh, CARD8 / RFU, STRN3 / Fold change vs veh, STRN3 / RFU, ADK / Fold change vs veh, ADK / RFU, RASSF2 / Fold change vs veh, RASSF2 / RFU, WIPF1 / Fold change vs veh, WIPF1 / RFU, LARP1B / Fold change vs veh, LARP1B / RFU, RASA1 / Fold change vs veh, RASA1 / RFU, RB1 / Fold change vs veh, RB1 / RFU, PPFIA1 / Fold change vs veh, PPFIA1 / RFU, MAT2A / Fold change vs veh, MAT2A / RFU, CCT5 / Fold change vs veh, CCT5 / RFU, WDR92 / Fold change vs veh, WDR92 / RFU, CUX1 / Fold change vs veh, CUX1 / RFU, TTC7A / Fold change vs veh, TTC7A / RFU, TMEM135 / Fold change vs veh, TMEM135 / RFU, DEPTOR / Fold change vs veh, DEPTOR / RFU, CPM / Fold change vs veh, CPM / RFU, DNAJB6 / Fold change vs veh, DNAJB6 / RFU, CACNA2D3 / Fold change vs veh, CACNA2D3 / RFU, DTX4 / Fold change vs veh, DTX4 / RFU, TFCP2 / Fold change vs veh, TFCP2 / RFU, GMCL1 /// GMCL1P1 / Fold change vs veh, GMCL1 /// GMCL1P1 / RFU, AEBP2 / Fold change vs veh, AEBP2 / RFU, SNHG1 /// SNORD22 /// SNORD25 /// SNORD26 /// SNORD27 /// SNORD28 /// SNORD29 /// SNORD31 / Fold change vs veh, SNHG1 /// SNORD22 /// SNORD25 /// SNORD26 /// SNORD27 /// SNORD28 /// SNORD29 /// SNORD31 / Fold change (Aza/veh), C12orf56 (ProbeSet 11735607_a_at) / Fold change (ACY-1035/veh), C12orf56 (ProbeSet 11735607_a_at) / Fold change (Aza/veh), FGFR1OP (ProbeSet 11751329_s_at) / Fold change (ACY-1035/veh), FGFR1OP (ProbeSet 11751329_s_at) / Fold change (Aza/veh), VPS36 (ProbeSet 11739960_a_at) / Fold change (ACY-1035/veh), VPS36 (ProbeSet 11739960_a_at) / RFU SYPL1 (11715823_x_at) / Fold change /veh SYPL1 (11715823_x_at) / RFU IGFBP7 (11715501_s_at) / Fold change /veh IGFBP7 (11715501_s_at) / RFU REEP3 (11722064_at) / Fold change /veh REEP3 (11722064_at) / RFU IGLL1 (11728026_x_at) / Fold change /veh IGLL1 (11728026_x_at): dose or concentration left out as unconfirmed
# Settings: ProbeSet 11749477_a_at; LIST B
smiles,measurement,value
Nc1ccc(-c2cccs2)cc1NC(=O)c1ccc2c(c1)cc(C1CC1)n2CCN1CCOCC1 [ACY-1035],"Fold change vs veh, EDEM3",0.94
